In patent publication US8197775B2, “Detection article having fluid control film” (priority 1999, dated 2012) one finds MIC data, which are given here for one compound.

In brackets after ≈: the same amount, converted by molar mass.

This assay concerns Escherichia coli ATCC 51813. The assay is described as follows: Minimum inhibitory concentration (MIC) test using microchannels, MUG fluorescence read-out. In kind it is cell-based. To be noted: ATCC51813, VRB media with MUG 0.5 mg/ml, 16 hours at 37° C., control tubes and microchannels. The procedure: Microchannel polyethylene films were heat embossed on a hydraulic press according to the procedure outlined in U.S. patent application Ser. No. 08/905,481. […] The channels were covered with ScotchPak #33 (3M Company) using an iron heated to 149 degrees C. (300 degrees F.), forming a series of capillary channels.
A dilution series of tetracycline was prepared in VRB media (7.0 g Bacto peptone, 3.0 g yeast extract, 1.5 g bile salts per liter) containing the fluorescent indicator methylumbelliferyl glucuronide (MUG, 0.5 mg/ml). The following tetracycline concentrations were prepared: 40, 4, 0.4, 0.04, and 0.004 micrograms/ml. Approximately 1 ml of each solution was placed in a test tube. A suspension of Escherichia coli ATCC 51813 (100 microliters of approximately 10^7 bacteria/ml) was added to each tube. A syringe was used to transfer each solution into adjacent microchannels (1.6 microliters/channel). Both the control tubes and the microchannel device were incubated for 16 hours at 37° C. After incubation the samples were observed under ultraviolet radiation.

With `CN(C)[C@@H]1C(O)=C(C(N)=O)C(=O)[C@@]2(O)C(O)=C3C(=O)c4c(O)cccc4[C@@](C)(O)[C@H]3C[C@@H]12` [tetracycline], the MIC stood at 4 µg/mL (≈ 9 µM).
